The results in this text go back to patent publication US20220348981A1, “ASSAY OF ARYLSULFATASE A ENZYMATIC ACTIVITY IN DRIED BLOOD SPOTS BY MASS SPECTROMETRY AND FLUOROMETRY” (University of Washington, priority 2019, published 2022).

Assay [1] deals with T1, arylsulfatase A (ARSA) (Homo sapiens, UniProt P15289).
T1 construct: the assay is able to detect ARSA enzymatic activity in lysates of mixed leukocytes (mainly lymphocytes) by LC-MS/MS; endogenous in cells; host or cells: mixed leukocytes (mainly lymphocytes) prepared from K2EDTA venous blood; lysate, 2 µg protein per assay
T1 sequence (P15289 19-507): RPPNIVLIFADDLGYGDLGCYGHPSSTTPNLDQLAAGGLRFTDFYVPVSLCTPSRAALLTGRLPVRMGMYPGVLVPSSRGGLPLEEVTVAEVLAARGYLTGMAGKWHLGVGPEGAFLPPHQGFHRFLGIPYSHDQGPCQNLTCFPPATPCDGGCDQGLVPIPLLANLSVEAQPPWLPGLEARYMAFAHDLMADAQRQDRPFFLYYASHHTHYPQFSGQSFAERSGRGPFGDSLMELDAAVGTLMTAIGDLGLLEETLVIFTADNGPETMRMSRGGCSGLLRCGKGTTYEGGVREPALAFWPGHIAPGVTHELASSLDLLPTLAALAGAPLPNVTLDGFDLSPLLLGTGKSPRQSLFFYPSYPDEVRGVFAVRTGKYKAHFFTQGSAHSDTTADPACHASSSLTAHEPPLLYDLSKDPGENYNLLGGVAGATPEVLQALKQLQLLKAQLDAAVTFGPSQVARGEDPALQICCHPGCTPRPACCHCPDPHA
Briefly: ARSA assay with a 3 mm DBS punch, no purification. The class given is biochemical. The following applies: 5 mM added to the assay buffer; data not shown. Here is the method:
Application of ARSA assay to DBS extracts purified by immune-precipitation. Initial attempts to detect ARSA enzymatic activity in DBS were unsuccessful. When the leukocyte lysate was substituted with a 3 mm DBS punch in the ARSA assay, no ARSA activity could be detected. Moreover, no ARSA activity was observed when leukocyte lysate was co-incubated with a DBS punch, whereas activity was seen when the leukocyte was incubated with a filter paper punch lacking blood matrix (data not shown). This indicated the presence of some ARSA inhibitor(s) in whole blood.

The target in assay [2] is T1, arylsulfatase A (ARSA). Put plainly: ARSA leukocyte assay by LC-MS/MS with deuterated sulfatide substrate. The note with it: for effect on ARSA activity: additive in assay buffer, increasing amount (Ce(acetate)3 0 to 20 mM). The class given is biochemical. The procedure:
Development of a new ARSA leukocyte assay. Recently, Han et al. reported the detection of ARSA enzymatic activity where a natural substrate, C18:0-sulfatide, was incubated with leukocyte lysate in buffer containing sodium taurodeoxycholate as detergent (Han, M.; Jun, S. H.; Song, S. H.; Park, H. D.; Park, K. U.; Song, J., Ultra-performance liquid chromatography-tandem mass spectrometry measurement of leukocyte arylsulfatase A activity using a natural substrate. Ann Lab Med 2015, 35 (1), 165-8). As described herein, in the present assay, the deuterium labeled sulfatide d3-C18:0-sulfatide was used as substrate so that the enzymatic product (d3-C18:0-galactosyl-ceramide) also carried the three deuterium labels, and could be selectively quantified without being interfered by the endogenous galactosyl-ceramide. Using this approach, the assay is able to detect ARSA enzymatic activity in lysates of mixed leukocytes (mainly lymphocytes) by LC-MS/MS. […] If leukocyte lysate was omitted, no discernable product peak was observed above the baseline noise (data not shown). […] Because detergent was present in the assay buffer, MLD patients that are due to dysfunctional Saposin B protein will not be detected with this assay, but these variants are very rare among MLD patients (less than 5%). In the Han et al. report, MnCl2 was added to the buffer at a concentration of 33 mM. […] Barium or cerium […] are often used to assay sulfatases in complex matrices to sequester inorganic sulfate and phosphate ions, which are potent inhibitors of sulfatases. […] The ARSA activity was pH dependent with an optimal pH at 4.5. […] The pH optimum of ARSA and the KM value found agreed with the previous reports. […]
Enzymatic activity calculation. ARSA activity in leukocyte (nmol/h/mg protein) was calculated by multiplying the ion ratio of ARSA product to ARSA internal standard (blank subtracted) by the nanomoles of internal standard added to the assay, then dividing by the incubation time (h) and the amount of leukocyte protein used (mg). […]

For `CC(=O)[O-].CC(=O)[O-].CC(=O)[O-].[Ce+3]` [Ce(acetate)3], in assay [1], the “rescue of ARSA activity in DBS” value is given as “did not rescue ARSA activity”. The “effect on ARSA activity” value in assay [2] was “decrease”. Turning to `[Cl][Mn][Cl]` [MnCl2], in assay [2], the “effect on ARSA activity” value is reported as “decrease with increasing amount”. Take `CC(=O)[O-].CC(=O)[O-].[Pd+2]` [Pd(Acetate)2]: in assay [1], the “rescue of ARSA activity in DBS” value was “did not rescue ARSA activity”. Consider d3-C18:0-sulfatide, for which the Km in assay [2] (leukocyte lysate, substrate concentration varied, hyperbolic kinetics, pH 4.5) was 83 µM.

The term Km denotes the concentration of substrate that gives half-maximal velocity.
